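Test compounds were applied to cells in 96-well plates for 48 hours at 5 doses. GI50 = concentration required for 50% inhibition of growth.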 Calls of active or inactive are those of the source. No stated cut-off is given here; in the data, active = GI50 up to about 1.1 µM and inactive = higher.
Experiments:
Assay in all cases: inhibition of tumour cell growth, NCI panel, 48 h
DMS-273 = tested on: DMS-273
KM-20L2 = tested on: KM-20L2
LXFL 529 = tested on: LXFL 529
M19-MEL = tested on: M19-MEL
RXF 631 = tested on: RXF 631
XF498 = tested on: XF498
HOP-18 = tested on: HOP-18
BT-549 = tested on: BT-549
Hs-578T = tested on: Hs-578T

C=C(C)C1CC[C@]2(C(=O)O)CCC3(C)[C@H](CCC4[C@@]5(C)CC[C@H](OC6OC(CO)C(O)C6OC6OC(C)C(O)C(O)C6O)[C@@](C)(CO)C5CC[C@]43C)C12 (some centres undefined)
GI50 (DMS-273): > 100 µM (inactive)
GI50 (KM-20L2): > 100 µM (inactive)
GI50 (LXFL 529): > 100 µM (inactive)
GI50 (M19-MEL): > 100 µM (inactive)
GI50 (RXF 631): > 100 µM (inactive)
GI50 (XF498): > 100 µM (inactive)

C1CC2=C(C1)C1=S(S2)SC2=C1CCC2
GI50 (DMS-273): > 100 µM (inactive)
GI50 (HOP-18): > 100 µM (inactive)
GI50 (KM-20L2): > 100 µM (inactive)
GI50 (LXFL 529): > 100 µM (inactive)
GI50 (M19-MEL): > 100 µM (inactive)
GI50 (RXF 631): > 100 µM (inactive)

COc1ccc2c(c1)CC1c3c(cc4c(c3-2)OCO4)CCN1C (centres undefined)
GI50 (DMS-273): 25.7 µM (inactive)
GI50 (HOP-18): 21.4 µM (inactive)
GI50 (KM-20L2): 30.8 µM (inactive)
GI50 (LXFL 529): 36.5 µM (inactive)
GI50 (M19-MEL): 21.4 µM (inactive)
GI50 (RXF 631): 24.5 µM (inactive)
GI50 (XF498): 27.7 µM (inactive)

C/C=C/C=N/N(c1nnc(-c2ccccc2)c(-c2ccccc2)n1)S(=O)(=O)c1ccc(C)cc1
GI50 (DMS-273): 11.1 µM (inactive)
GI50 (HOP-18): 14.2 µM (inactive)
GI50 (KM-20L2): 13.2 µM (inactive)
GI50 (LXFL 529): 7.21 µM (inactive)
GI50 (M19-MEL): 13.2 µM (inactive)
GI50 (RXF 631): 17.5 µM (inactive)

CCOC(=O)c1c(C(F)(F)F)oc2c1ccc1nc3nonc3nc12
GI50 (DMS-273): 19.1 µM (inactive)
GI50 (HOP-18): 11 µM (inactive)
GI50 (KM-20L2): 18.2 µM (inactive)
GI50 (LXFL 529): 14 µM (inactive)
GI50 (M19-MEL): 18.6 µM (inactive)
GI50 (RXF 631): 19 µM (inactive)
GI50 (XF498): 17 µM (inactive)

COC(=O)NC1C(C)OC(OC2C/C=C(/C)C3C=CC4C(OC5CC(OC6CCC(OC7CC(O)C(OC8CCC(O)C(C)O8)C(C)O7)C(C)O6)C(OC(C)=O)C(C)O5)C(C)CC(C)C4C3(C)/C(O)=C3/C(=O)OC4(CC(C=O)=CC(O)C4/C=C\2C)C3=O)CC1(C)[N+](=O)[O-] (centres undefined)
GI50 (BT-549): 1.04 µM (active)
GI50 (DMS-273): 1.27 µM (inactive)
GI50 (HOP-18): 2.15 µM (inactive)
GI50 (Hs-578T): 0.282 µM (active)
GI50 (KM-20L2): 1.29 µM (inactive)
GI50 (LXFL 529): 0.352 µM (active)
GI50 (M19-MEL): 0.367 µM (active)
GI50 (RXF 631): 0.603 µM (active)
GI50 (XF498): 0.261 µM (active)

CCc1cccc(C)c1NC(=O)CC1Sc2ccccc2NC1=O (centres undefined)
GI50 (DMS-273): 48.9 µM (inactive)
GI50 (HOP-18): 19.5 µM (inactive)
GI50 (KM-20L2): 46.5 µM (inactive)
GI50 (LXFL 529): 56.8 µM (inactive)
GI50 (M19-MEL): 45.4 µM (inactive)
GI50 (RXF 631): 35.8 µM (inactive)
GI50 (XF498): 72.9 µM (inactive)

O=C(/C=C/c1ccccc1O)c1cccnc1
GI50 (DMS-273): > 100 µM (inactive)
GI50 (HOP-18): > 100 µM (inactive)
GI50 (KM-20L2): > 100 µM (inactive)
GI50 (LXFL 529): > 100 µM (inactive)
GI50 (M19-MEL): > 100 µM (inactive)
GI50 (RXF 631): > 100 µM (inactive)
GI50 (XF498): > 100 µM (inactive)

C(/C=C/N1CCCC1)=C\c1nc(N2CCCC2)c2ccccc2n1
GI50 (DMS-273): 18.4 µM (inactive)
GI50 (HOP-18): 16.5 µM (inactive)
GI50 (KM-20L2): 24.9 µM (inactive)
GI50 (LXFL 529): 14.7 µM (inactive)
GI50 (M19-MEL): 17 µM (inactive)
GI50 (RXF 631): 7.73 µM (inactive)

O=S(=O)(O)c1ccc(-c2c3nc(c(-c4ccc(S(=O)(=O)O)cc4)c4ccc([nH]4)c(-c4ccc(S(=O)(=O)O)cc4)c4nc(c(-c5ccc(S(=O)(=O)O)cc5)c5ccc2[nH]5)C=C4)C=C3)cc1
GI50 (DMS-273): 95.5 µM (inactive)
GI50 (HOP-18): > 100 µM (inactive)
GI50 (KM-20L2): > 100 µM (inactive)
GI50 (LXFL 529): > 100 µM (inactive)
GI50 (M19-MEL): > 100 µM (inactive)
GI50 (RXF 631): 80.9 µM (inactive)
GI50 (XF498): > 100 µM (inactive)

CC(=O)Oc1c(Br)ccc2cc(C(Br)Br)c(C(=O)c3ccccc3)nc12
GI50 (DMS-273): 20.6 µM (inactive)
GI50 (HOP-18): 17.2 µM (inactive)
GI50 (KM-20L2): 19.4 µM (inactive)
GI50 (LXFL 529): 30.6 µM (inactive)
GI50 (M19-MEL): 22.3 µM (inactive)
GI50 (RXF 631): 23.5 µM (inactive)
GI50 (XF498): 14.8 µM (inactive)

COc1ccc(C2(Cl)C(Cl)(C(F)(F)F)C2(Cl)C(F)(F)F)cc1 (centres undefined)
GI50 (DMS-273): 14.3 µM (inactive)
GI50 (HOP-18): 15.3 µM (inactive)
GI50 (KM-20L2): 15.6 µM (inactive)
GI50 (LXFL 529): 13.9 µM (inactive)
GI50 (M19-MEL): 13.6 µM (inactive)
GI50 (RXF 631): 15.2 µM (inactive)
GI50 (XF498): 12.9 µM (inactive)

CC(C)N(C(=O)C12C3C4C1C1C2C3C41C#N)C(C)C (centres undefined)
GI50 (DMS-273): > 71.8 µM (inactive)
GI50 (HOP-18): > 100 µM (inactive)
GI50 (KM-20L2): > 100 µM (inactive)
GI50 (LXFL 529): > 100 µM (inactive)
GI50 (M19-MEL): > 100 µM (inactive)
GI50 (RXF 631): > 100 µM (inactive)
GI50 (XF498): > 100 µM (inactive)

C/C(=N/O)c1sc(-c2nc(C)c(/C(C)=N\O)s2)nc1C
GI50 (DMS-273): > 100 µM (inactive)
GI50 (HOP-18): > 100 µM (inactive)
GI50 (KM-20L2): > 100 µM (inactive)
GI50 (LXFL 529): > 100 µM (inactive)
GI50 (M19-MEL): > 100 µM (inactive)
GI50 (RXF 631): > 100 µM (inactive)
GI50 (XF498): > 100 µM (inactive)

COC(=O)C1C=NNC1C(=O)OC (centres undefined)
GI50 (DMS-273): > 100 µM (inactive)
GI50 (HOP-18): > 100 µM (inactive)
GI50 (KM-20L2): > 100 µM (inactive)
GI50 (LXFL 529): > 100 µM (inactive)
GI50 (M19-MEL): > 100 µM (inactive)
GI50 (RXF 631): > 100 µM (inactive)
GI50 (XF498): > 100 µM (inactive)

CC(C)(C)OC(=O)Cc1ccc2c(ccn2Cc2ccccc2)c1
GI50 (DMS-273): 48 µM (inactive)
GI50 (HOP-18): > 100 µM (inactive)
GI50 (KM-20L2): 26.3 µM (inactive)
GI50 (LXFL 529): 46.7 µM (inactive)
GI50 (M19-MEL): 62.4 µM (inactive)
GI50 (RXF 631): 25.9 µM (inactive)

O=C(/C=C/c1ccccc1)c1ccc(Cl)cc1Cl
GI50 (DMS-273): 15.5 µM (inactive)
GI50 (HOP-18): 22 µM (inactive)
GI50 (KM-20L2): 19.5 µM (inactive)
GI50 (LXFL 529): 15.1 µM (inactive)
GI50 (M19-MEL): 23.4 µM (inactive)
GI50 (RXF 631): 38 µM (inactive)

COC(=O)c1ccc2c(c1)C(NC(C)=O)CCc1cc(OC)c(OC)c(OC)c1-2 (centres undefined)
GI50 (BT-549): 0.104 µM (active)
GI50 (DMS-273): < 0.01 µM (active)
GI50 (HOP-18): > 40.4 µM (inactive)
GI50 (Hs-578T): 0.0122 µM (active)
GI50 (KM-20L2): 0.0118 µM (active)
GI50 (LXFL 529): < 0.0154 µM (active)
GI50 (M19-MEL): 0.0235 µM (active)
GI50 (RXF 631): 0.014 µM (active)
GI50 (XF498): 0.06 µM (active)

From ChEMBL document CHEMBL1201862, “PubChem BioAssay data set” (2004)
